# ChEMBL document CHEMBL1201862, “PubChem BioAssay data set” (2004)
# Calls of active or inactive are those of the source.
# Key:
# [1] = target: SUMO-activating enzyme (Homo sapiens, UniProt Q9UBT2); experiment: inhibitors of in vitro SUMOylation cascade, primary screen, biochemical, HTRF, uHTS (AID 2006); assay type: protein-complex assay
# [2] = target: T1, Sentrin-specific protease 6 (Homo sapiens, UniProt Q9GZR1); assay type: functional;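 further: Luminescence-based dose-response confirmatory assay of SENP6 inhibition, following up an ultra-high-throughput screen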
# T1 sequence (Q9GZR1 whole entry): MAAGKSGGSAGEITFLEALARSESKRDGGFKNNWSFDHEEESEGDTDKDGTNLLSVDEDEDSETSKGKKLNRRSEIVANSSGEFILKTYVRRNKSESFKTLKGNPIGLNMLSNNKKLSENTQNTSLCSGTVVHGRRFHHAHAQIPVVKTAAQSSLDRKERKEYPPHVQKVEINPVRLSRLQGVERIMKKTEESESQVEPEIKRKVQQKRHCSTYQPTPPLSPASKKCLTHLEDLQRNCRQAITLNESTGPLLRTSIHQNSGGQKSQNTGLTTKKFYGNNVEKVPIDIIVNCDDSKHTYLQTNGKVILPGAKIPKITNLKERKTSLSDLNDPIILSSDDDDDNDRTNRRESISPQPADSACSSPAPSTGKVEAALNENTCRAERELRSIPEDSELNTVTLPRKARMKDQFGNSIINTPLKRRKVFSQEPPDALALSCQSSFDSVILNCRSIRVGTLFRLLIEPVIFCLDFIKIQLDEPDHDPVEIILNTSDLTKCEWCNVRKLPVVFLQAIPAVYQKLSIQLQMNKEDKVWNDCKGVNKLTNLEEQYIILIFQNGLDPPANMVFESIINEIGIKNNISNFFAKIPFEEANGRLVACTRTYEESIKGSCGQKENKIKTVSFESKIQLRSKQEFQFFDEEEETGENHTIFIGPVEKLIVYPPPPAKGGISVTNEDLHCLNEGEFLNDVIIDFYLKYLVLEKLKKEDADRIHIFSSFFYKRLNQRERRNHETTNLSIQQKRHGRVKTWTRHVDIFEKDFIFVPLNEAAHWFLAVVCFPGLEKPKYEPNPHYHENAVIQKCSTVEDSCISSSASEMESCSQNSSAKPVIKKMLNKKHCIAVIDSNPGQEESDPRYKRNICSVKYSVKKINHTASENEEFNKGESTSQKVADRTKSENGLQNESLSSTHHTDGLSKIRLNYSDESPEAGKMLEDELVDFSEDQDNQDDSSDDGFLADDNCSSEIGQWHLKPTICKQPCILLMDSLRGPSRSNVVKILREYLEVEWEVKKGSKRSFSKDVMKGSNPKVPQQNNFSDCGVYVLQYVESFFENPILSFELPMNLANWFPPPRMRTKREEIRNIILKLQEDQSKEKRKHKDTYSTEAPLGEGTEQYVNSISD
# [3] = tested on: Escherichia coli; experiment: microbe, parasite or virus in culture
# [4] = target: T2, Serine/threonine-protein phosphatase (Candida dubliniensis (strain CD36 / CBS 7987 / NCPF 3949 / NRRLY-17841) (Yeast), UniProt B9W6M3); experiment: calcineurin pathway inhibitors in yeast reporter, dose response, S. cerevisiae, CDRE-lacZ, luminescence, secondary (AID 2388); assay type: functional, cell-based;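 further: yeast reporter cells carrying a calcineurin-responsive lacZ construct stimulated with calcium chloride; luminescent beta-galactosidase reporter signal in whole cells rather than isolated phosphatase activity; potency for inhibition where a drop in reporter signal means calcineurin blockade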
# T2 sequence (B9W6M3 whole entry): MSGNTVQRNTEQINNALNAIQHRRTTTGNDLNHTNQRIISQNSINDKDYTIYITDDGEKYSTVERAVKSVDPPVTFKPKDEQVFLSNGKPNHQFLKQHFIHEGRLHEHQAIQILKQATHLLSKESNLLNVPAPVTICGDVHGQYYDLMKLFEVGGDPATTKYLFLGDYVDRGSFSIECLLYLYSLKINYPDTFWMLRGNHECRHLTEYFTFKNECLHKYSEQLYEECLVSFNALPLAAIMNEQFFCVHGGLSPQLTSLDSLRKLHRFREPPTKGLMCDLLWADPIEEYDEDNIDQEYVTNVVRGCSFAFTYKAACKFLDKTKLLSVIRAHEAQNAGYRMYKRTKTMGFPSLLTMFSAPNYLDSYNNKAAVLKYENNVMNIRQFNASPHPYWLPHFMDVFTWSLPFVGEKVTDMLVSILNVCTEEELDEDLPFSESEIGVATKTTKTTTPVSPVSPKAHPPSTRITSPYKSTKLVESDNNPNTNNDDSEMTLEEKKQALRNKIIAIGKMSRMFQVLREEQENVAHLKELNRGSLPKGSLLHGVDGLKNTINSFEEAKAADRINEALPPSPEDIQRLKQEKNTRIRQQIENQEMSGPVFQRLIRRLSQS
# [5] = target: Small ubiquitin-related modifier 1 (Homo sapiens, UniProt P63165); experiment: inhibitors of SUMO1 partner interactions, dose response, biochemical, FRET (AID 624383); assay type: functional; conditions: read-out: IC50_Mean
# [6] = cytotoxicity toward HT-29 cells – cell-based, CellTiter-Glo luminescence, IC50, dose response (AID 1117330); assay type: functional
# [7] = target: Small ubiquitin-related modifier 2 (Homo sapiens, UniProt P61956); experiment: SUMO2–SIM peptide binding inhibitors, dose response, selectivity assay for SUMO1 interaction inhibitor project, biochemical, fluorescence polarization, uHTS hits (AID 624385); assay type: functional; conditions: read-out: IC50_Mean
# Chain of Small ubiquitin-related modifier 2 (P61956 whole entry): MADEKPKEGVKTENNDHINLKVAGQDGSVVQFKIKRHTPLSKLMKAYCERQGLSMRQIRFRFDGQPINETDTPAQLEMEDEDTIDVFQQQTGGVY
# Chain of SUMO-activating enzyme (Q9UBE0 whole entry): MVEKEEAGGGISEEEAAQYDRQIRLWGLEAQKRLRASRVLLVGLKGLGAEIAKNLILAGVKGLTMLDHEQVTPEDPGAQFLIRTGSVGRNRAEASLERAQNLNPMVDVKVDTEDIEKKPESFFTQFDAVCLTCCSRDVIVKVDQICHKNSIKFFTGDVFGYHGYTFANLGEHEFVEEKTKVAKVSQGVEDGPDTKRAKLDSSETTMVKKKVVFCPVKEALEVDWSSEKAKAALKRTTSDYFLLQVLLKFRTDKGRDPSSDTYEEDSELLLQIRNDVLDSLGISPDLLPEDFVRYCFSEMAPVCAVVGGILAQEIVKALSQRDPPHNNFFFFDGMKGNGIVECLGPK
# Chain of SUMO-activating enzyme (Q9UBT2 whole entry): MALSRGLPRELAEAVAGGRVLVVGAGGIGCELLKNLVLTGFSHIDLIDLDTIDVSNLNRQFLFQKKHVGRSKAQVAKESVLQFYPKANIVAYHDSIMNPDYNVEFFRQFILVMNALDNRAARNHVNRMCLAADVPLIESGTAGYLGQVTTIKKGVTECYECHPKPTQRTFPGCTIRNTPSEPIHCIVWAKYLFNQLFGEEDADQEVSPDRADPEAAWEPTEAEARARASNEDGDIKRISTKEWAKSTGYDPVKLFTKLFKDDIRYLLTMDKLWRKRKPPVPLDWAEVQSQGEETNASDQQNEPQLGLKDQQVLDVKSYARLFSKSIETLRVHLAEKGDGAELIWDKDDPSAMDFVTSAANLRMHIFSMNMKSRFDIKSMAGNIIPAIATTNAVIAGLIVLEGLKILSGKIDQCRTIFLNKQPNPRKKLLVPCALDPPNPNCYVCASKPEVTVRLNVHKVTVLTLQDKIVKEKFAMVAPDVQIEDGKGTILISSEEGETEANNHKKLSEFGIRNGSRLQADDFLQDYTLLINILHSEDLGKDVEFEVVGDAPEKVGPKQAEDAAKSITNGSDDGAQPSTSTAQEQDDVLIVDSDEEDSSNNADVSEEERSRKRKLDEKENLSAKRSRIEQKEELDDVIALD
# Chain of Small ubiquitin-related modifier 1 (P63165 whole entry): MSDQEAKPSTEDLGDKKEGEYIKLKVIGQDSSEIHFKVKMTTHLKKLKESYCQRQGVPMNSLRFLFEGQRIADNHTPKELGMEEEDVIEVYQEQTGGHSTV
smiles,measurement,setting,value
N#Cc1c(N2CCCCC2)nc(N)c2c(N)nc(SCC(=O)O)cc12,IC50,[1],3.92 µM (active)
same,IC50,[2],8.26 µM (active)
O=[N+]([O-])c1ccc(Sc2cccc[n+]2[O-])c2nonc12,AC50,[3],8.5 µM (active)
CCCC(=O)NC(c1ccc(C(C)C)cc1)c1ccc2cccnc2c1O (configuration not stated),EC50,[4],> 180 µM (inactive)
Oc1c(Cl)cc(Cl)c(Cl)c1Cc1c(O)c(Cl)cc(Cl)c1Cl [HEXACHLOROPHENE],IC50,[5],38.9 µM (inactive)
same,IC50,[6],0.46 µM (active)
same,IC50,[7],8.49 µM (active)
